According to patent publication US20190184054A1, “COMPOSITIONS FOR THE TREATMENT OF PAIN AND/OR INFLAMMATION” (BCN PEPTIDES. S.A., priority 2008, published 2019):
Primed or numbered codes have the meaning given here. *: point of attachment. PEG1′ = PEG spacer, n=1 in acetyl-PEGn N-terminus; PEG2′ = PEG spacer, n=2 in acetyl-PEGn N-terminus; PEG3′ = PEG spacer, n=3 in acetyl-PEGn N-terminus; PEG4′ = PEG spacer, n=4 in acetyl-PEGn N-terminus; PEG5′ = PEG spacer, n=5 in acetyl-PEGn N-terminus; Palmitoyl = CCCCCCCCCCCCCCCC(=O)*

test system: inflammation produced by intraplantar injection of carrageenan; assay: carrageenan test: paw volume increase after intraplantar carrageenan, measured with a plethysmometer; type: in vivo; details: diclofenac 10 mg/kg, positive control used as the standard
Source text: Carrageenan is an irritant whose administration causes a powerful inflammation four hours after administration. The inflammatory process can be easily discerned as an increase in the volume of the paw that received carrageenan, measured with a plethysmometer. […] Therefore, the peptides of this invention have anti-inflammatory activity in vivo.

Compound	ANTI-INFLAMMATORY ACTIVITY
O=C(O)Cc1ccccc1Nc1c(Cl)cccc1Cl [diclofenac, reference compound]	100%

same assay, conditions: peptides 5 mg/kg (im); decrease in inflammation standardized to positive control diclofenac

Compound	ANTI-INFLAMMATORY ACTIVITY
Ac-PEG1-SEQ ID No. 11-NH2: acetyl-PEGn (n=1) N-terminus, amide C-terminus; SNAP-25 residues 12 to 17 (SEQ ID No. 11) ({Ac-PEG1′}-EEMQRR-NH2; listed as Homo sapiens)	21%
Ac-PEG2-SEQ ID No. 11-NH2: acetyl-PEGn (n=2) N-terminus, amide C-terminus; SNAP-25 residues 12 to 17 (SEQ ID No. 11) ({Ac-PEG2′}-EEMQRR-NH2; listed as Homo sapiens)	29%
Ac-PEG3-SEQ ID No. 11-NH2: acetyl-PEGn (n=3) N-terminus, amide C-terminus; SNAP-25 residues 12 to 17 (SEQ ID No. 11) ({Ac-PEG3′}-EEMQRR-NH2; listed as Homo sapiens)	42%
Ac-PEG4-SEQ ID No. 11-NH2: acetyl-PEGn (n=4) N-terminus, amide C-terminus; SNAP-25 residues 12 to 17 (SEQ ID No. 11) ({Ac-PEG4′}-EEMQRR-NH2; listed as Homo sapiens)	23%
Ac-PEG5-SEQ ID No. 11-NH2: acetyl-PEGn (n=5) N-terminus, amide C-terminus; SNAP-25 residues 12 to 17 (SEQ ID No. 11) ({Ac-PEG5′}-EEMQRR-NH2; listed as Homo sapiens)	53%
Ac-SEQ ID No. 4-NH2: acetyl N-terminus, amide C-terminus; SNAP-25 residues 10 to 22 (SEQ ID No. 4) (Ac-ELEEMQRRADQLA-NH2; listed as Homo sapiens)	65%
Ac-SEQ ID No. 9-NH2: acetyl N-terminus, amide C-terminus; SNAP-25 residues 26 to 38 (SEQ ID No. 9) (Ac-LESTRRMLQLVEE-NH2; listed as Homo sapiens)	98%
Ac-SEQ ID No. 11-NH2: acetyl N-terminus, amide C-terminus; SNAP-25 residues 12 to 17 (SEQ ID No. 11) (Ac-EEMQRR-NH2; listed as Homo sapiens)	49%
Ac-SEQ ID No. 26-NH2: acetyl N-terminus, amide C-terminus; SNAP-25-derived sequence SEQ ID No. 26 (Ac-EEMQRRA-NH2; listed as Homo sapiens)	14%
Palm-SEQ ID No. 4-NH2: palmitoyl N-terminus, amide C-terminus; SNAP-25 residues 10 to 22 (SEQ ID No. 4) (Palmitoyl-ELEEMQRRADQLA-NH2; SMILES CCCCCCCCCCCCCCCC(=O)N[C@@H](CCC(=O)O)C(=O)N[C@@H](CC(C)C)C(=O)N[C@@H](CCC(=O)O)C(=O)N[C@@H](CCC(=O)O)C(=O)N[C@@H](CCSC)C(=O)N[C@@H](CCC(N)=O)C(=O)N[C@@H](CCCNC(=N)N)C(=O)N[C@@H](CCCNC(=N)N)C(=O)N[C@@H](C)C(=O)N[C@@H](CC(=O)O)C(=O)N[C@@H](CCC(N)=O)C(=O)N[C@@H](CC(C)C)C(=O)N[C@@H](C)C(N)=O; listed as Homo sapiens)	58%
Palm-SEQ ID No. 9-NH2: palmitoyl N-terminus, amide C-terminus; SNAP-25 residues 26 to 38 (SEQ ID No. 9) (Palmitoyl-LESTRRMLQLVEE-NH2; SMILES CCCCCCCCCCCCCCCC(=O)N[C@@H](CC(C)C)C(=O)N[C@@H](CCC(=O)O)C(=O)N[C@@H](CO)C(=O)N[C@H](C(=O)N[C@@H](CCCNC(=N)N)C(=O)N[C@@H](CCCNC(=N)N)C(=O)N[C@@H](CCSC)C(=O)N[C@@H](CC(C)C)C(=O)N[C@@H](CCC(N)=O)C(=O)N[C@@H](CC(C)C)C(=O)N[C@H](C(=O)N[C@@H](CCC(=O)O)C(=O)N[C@@H](CCC(=O)O)C(N)=O)C(C)C)[C@@H](C)O; listed as Homo sapiens)	77%
Palm-SEQ ID No. 11-MH2: palmitoyl N-terminus, amide C-terminus; SNAP-25 residues 12 to 17 (SEQ ID No. 11) (Palmitoyl-EEMQRR-NH2; SMILES CCCCCCCCCCCCCCCC(=O)N[C@@H](CCC(=O)O)C(=O)N[C@@H](CCC(=O)O)C(=O)N[C@@H](CCSC)C(=O)N[C@@H](CCC(N)=O)C(=O)N[C@@H](CCCNC(=N)N)C(=O)N[C@@H](CCCNC(=N)N)C(N)=O; listed as Homo sapiens)	81%
